Patent publication US20230322722A1, “MODULATORS OF MYC FAMILY PROTO-ONCOGENE PROTEIN” (Nalo Therapeutics, priority 2020, published 2023)

Experiments:
[1] = molecular target: T1, MycN protein (Homo sapiens, UniProt P04198); test: Degradation of MycN protein, Western blot, SKNBE2 cells (Example 160); format: cell-based
T1 construct: either 2×10^6 of L-363 (human leukemia cell line) or SKNBE2 (neuroblastoma cell line) cells; endogenous in cells; host or cells: SKNBE2 / SK-N-BE(2) neuroblastoma cells
T1 sequence (P04198 1-464): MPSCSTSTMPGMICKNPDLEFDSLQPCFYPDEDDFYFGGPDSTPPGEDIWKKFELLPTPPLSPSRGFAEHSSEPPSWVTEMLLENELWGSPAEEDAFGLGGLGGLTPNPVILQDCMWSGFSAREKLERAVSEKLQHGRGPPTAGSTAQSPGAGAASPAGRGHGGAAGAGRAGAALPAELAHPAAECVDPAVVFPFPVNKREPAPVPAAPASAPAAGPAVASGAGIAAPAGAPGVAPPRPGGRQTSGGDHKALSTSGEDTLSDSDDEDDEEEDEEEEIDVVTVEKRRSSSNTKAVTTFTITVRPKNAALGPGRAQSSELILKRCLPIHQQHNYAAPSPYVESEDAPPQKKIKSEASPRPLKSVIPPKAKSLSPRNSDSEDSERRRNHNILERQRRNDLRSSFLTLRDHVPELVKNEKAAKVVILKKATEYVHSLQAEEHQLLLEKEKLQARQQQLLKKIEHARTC
Method: (§1) In a T150 flask was plated either 2×10^6 of L-363 (human leukemia cell line) or SKNBE2 (neuroblastoma cell line) cells in a total of 30 mL containing Roswell Park Memorial Institute (RPMI) 1640 Medium (Thermo Fisher, Cat. #11875-085), 10% Fetal Bovine Serum (FBS, Thermo Fisher: Cat. #10437-028), 1% Penicillin/streptomycin (Thermo Fisher: Cat. #10378016), and 1% Amophotericin B (Thermo Fisher, Cat. #15290026). The cells were split every 72 hours by reseeding the L-363 or SKNBE2 cells, and the passage number was noted. It is noteworthy that cell cultures that were above 40 passages were not used, and most experiments were done with cells of less than 30 passages.
(§2) In a 6-well cell culture plate, a total of 3 mL of either 1×10^6 cells/mL of L-363 or SKNBE2 cells were seeded, resulting in a total of 3×10^6 cells per well. To each well containing 3 mL of either L-363 or SKNBE2 cell line was added 6 uL of MycN modulating compound (1 mM) and the resulting plate was shaken from left to right, and not swirled. After 6 hours, the cells were placed in a 15 mL falcon tube and spun at 500 Gs at 4° C. in a swinging bucket centrifuge. The medium was then carefully removed without disturbing the pellet. The pellet was then washed with 3 mLs of chilled phosphate buffered saline (PBS) and subjected to the spin cycle. PBS was then removed and the pellet was lysed in 200 uL of radioimmunoprecipitation (RIPA) lysis buffer (Thermo Fisher: Cat. #899000) that is supplemented with protease and phosphatase inhibitors (Thermo Fisher: Cat. #A32959). The cell lysate was then subjected to spinning in a centrifuge for 10 minutes at 13000 G at 4° C. The supernatant was then carefully transferred to a fresh eppendorf tube without disturbing the pellet (˜180 uL). The protein concentration of the cell lysate was then determined by using a bicinchoninic acid (BCA assay) according to manufacturer's protocol (Thermo Fisher: Cat. #23227).
(§3) Cell lysate, approximately 25 ug-30 ug, was loaded per well in a 4-20% polyacrylamide gel (Biorad. Cat. #5671094). After running the dye front off of the gel, the gel was transferred to a nitrocellulose membrane (Biorad: Cat. #1704159) using the transblot turbo system (Biorad: Cat. #1704150) according to manufacturer's protocol. After transferring for 30 minutes, the membrane was blocked with 5% BSA for 1 hour at room temperature. The BSA was then washed off and the primary antibody of choice (1:500) was added, and the membrane was incubated with the primary antibody at 4° C. for overnight. The next morning, the primary antibody was removed and the membrane was washed with 1×-TBST for 10 minutes and repeated three more times. Following the last wash, a secondary antibody (Molecular Devices. Cat. #R8209 or R8208) was added at 1:5000 dilution and incubated for 1 hour at room temperature. Following the incubation with the secondary antibody, the membrane was washed with 1×-TBST for 10 minutes and repeated three more times. Following the last wash, the membrane was washed with de-ionized water twice and dried for at least two hours. Once the membrane is completely dry, the Molecular Devices Spectra Max western system was used to observe the bands. The western image was saved and the band density was measured with ImageJ software.

[2] = molecular target: T2, MycC protein (Homo sapiens, UniProt P01106); test: Degradation of MycC protein, Western blot, L-363 cells (Example 160); format: cell-based; settings: 6 h
T2 construct: either 2×10^6 of L-363 (human leukemia cell line) or SKNBE2 (neuroblastoma cell line) cells; endogenous in cells; host or cells: L-363 / L363 human leukemia cells
Method: as §1, §2, §3

T2 sequence (P01106 whole entry): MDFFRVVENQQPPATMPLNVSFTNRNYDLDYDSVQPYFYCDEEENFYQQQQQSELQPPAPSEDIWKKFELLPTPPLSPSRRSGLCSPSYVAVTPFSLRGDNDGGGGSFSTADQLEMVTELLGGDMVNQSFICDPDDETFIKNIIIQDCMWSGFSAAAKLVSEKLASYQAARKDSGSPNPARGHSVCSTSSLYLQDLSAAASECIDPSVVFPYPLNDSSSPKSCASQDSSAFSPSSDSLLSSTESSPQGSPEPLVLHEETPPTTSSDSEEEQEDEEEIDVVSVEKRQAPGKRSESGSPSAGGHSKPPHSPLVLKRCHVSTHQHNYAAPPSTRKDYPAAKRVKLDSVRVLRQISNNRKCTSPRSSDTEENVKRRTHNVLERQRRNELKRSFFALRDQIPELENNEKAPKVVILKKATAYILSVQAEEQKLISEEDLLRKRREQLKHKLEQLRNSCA

SMILES | inhibition at 2 µM ([1]; SKNBE2, 6 h) | inhibition at 2 µM [2] | % Degradation of MycN (SKNBE2) 6 h, 2 μM [1] | inhibition at 2 µM ([1]; 6 h)
CN(c1nccc(Nc2cc(C3CC3)[nH]n2)n1)[C@H]1CC[C@H](NC(=O)Cc2ccnc(C#N)c2)CC1 [Compound 124, 2-(2-cyanopyridin-4-yl)-N-((1R,4R)-4-((4-((5-cyclopropyl-1H-pyrazol-3-yl)amino)pyrimidin-2-yl)(methyl)amino)cyclohexyl)acetamide] | 50 to 79% | 80 to 100% | – | –
CN(c1nccc(Nc2cc(C3CC3)[nH]n2)n1)[C@H]1CC[C@H](NC(=O)Cc2ccnc(C(F)(F)F)c2)CC1 [Compound 123, N-((1R,4R)-4-((4-((5-cyclopropyl-1H-pyrazol-3-yl)amino)pyrimidin-2-yl)(methyl)amino)cyclohexyl)-2-(2-(trifluoromethyl)pyridin-4-yl)acetamide] | 20 to 49% | 20 to 49% | – | –
CN(c1nccc(Nc2cc(C3CC3)[nH]n2)n1)[C@H]1CC[C@H](NC(=O)C2(C)CCOCC2)CC1 [Compound 116, N-((1R,4R)-4-((4-((5-cyclopropyl-1H-pyrazol-3-yl)amino)pyrimidin-2-yl)(methyl)amino)cyclohexyl)-4-methyltetrahydro-2H-pyran-4-carboxamide] | < 20% | 80 to 100% | – | –
CN(c1cc(C2CC2)[nH]n1)c1ccnc(N(C)[C@H]2CC[C@H](NC(=O)C3Cc4ccccc4C3)CC2)n1 [Compound 110, N-((1R,4R)-4-((4-((5-cyclopropyl-1H-pyrazol-3-yl)(methyl)amino)pyrimidin-2-yl)(methyl)amino)cyclohexyl)-2,3-dihydro-1H-indene-2-carboxamide] | < 20% | 20 to 49% | – | –
CN(c1nccc(Nc2cc(C3CC3)[nH]n2)n1)[C@H]1CC[C@H](NS(=O)(=O)c2ccc(C#N)cn2)CC1 [Compound 156, 5-cyano-N-((1R,4R)-4-((4-((5-cyclopropyl-1H-pyrazol-3-yl)amino)pyrimidin-2-yl)(methyl)amino)cyclohexyl)pyridine-2-sulfonamide] | – | 80 to 100% | – | 50 to 79%
CN(c1nccc(Nc2cc(C3CC3)[nH]n2)n1)[C@H]1CC[C@H](NC(=O)C2CCCC(C(F)(F)F)C2)CC1 (stereo partly drawn) [113 F1] | – | 50 to 79% | * (degradation <20%) | –
CN(c1cc(C2CC2)[nH]n1)c1ccnc(N(C)C2CCN(CC(=O)Nc3cccc(C(F)(F)F)c3)CC2)n1 [Compound 4, 2-(4-((4-((5-cyclopropyl-1H-pyrazol-3-yl)(methyl)amino)pyrimidin-2-yl)(methyl)amino)piperidin-1-yl)-N-(3-(trifluoromethyl)phenyl)acetamide] | < 20% | 20 to 49% | – | –
CN(c1nccc(Nc2cc(C3CC3)[nH]n2)n1)[C@H]1CC[C@H](NC(=O)N2Cc3cc(F)c(F)cc3C2)CC1 [Compound 12, N-((1R,4R)-4-((4-((5-cyclopropyl-1H-pyrazol-3-yl)amino)pyrimidin-2-yl)(methyl)amino)cyclohexyl)-5,6-difluoroisoindoline-2-carboxamide] | 50 to 79% | 80 to 100% | – | –
Cc1cnc(CC(=O)NC2CCC(N(C)c3nccc(Nc4cc(C5CC5)[nH]n4)n3)CC2)cn1 [Compound 108, N-((1R,4R)-4-((4-((5-cyclopropyl-1H-pyrazol-3-yl)amino)pyrimidin-2-yl)(methyl)amino)cyclohexyl)-2-(5-methylpyrazin-2-yl)acetamide] | 50 to 79% | 80 to 100% | – | –

The next lines start with results.

inhibition at 2 µM ([1]; SKNBE2, 6 h) | inhibition at 2 µM [2] | % Degradation of MycN (SKNBE2) 6 h, 2 μM [1] | SMILES | inhibition at 2 µM ([1]; 6 h)
80 to 100% | 80 to 100% | – | CN(c1nccc(Nc2cc(C3CC3)[nH]n2)n1)[C@H]1CC[C@H](NC(=O)c2nc3ccccn3n2)CC1 [Compound 142, N-((1R,4R)-4-((4-((5-cyclopropyl-1H-pyrazol-3-yl)amino)pyrimidin-2-yl)(methyl)amino)cyclohexyl)-[1,2,4]triazolo[1,5-a]pyridine-2-carboxamide] | –
80 to 100% | 80 to 100% | – | CN(c1nccc(Nc2cc(C3CC3)[nH]n2)n1)[C@H]1CC[C@H](NS(=O)(=O)Cc2cccc(C(F)(F)F)c2)CC1 [Compound 152, N-((1R,4R)-4-((4-((5-cyclopropyl-1H-pyrazol-3-yl)amino)pyrimidin-2-yl)(methyl)amino)cyclohexyl)-1-(3-(trifluoromethyl)phenyl)methanesulfonamide] | –
80 to 100% | 80 to 100% | – | Cn1nnc(CNC(=O)[C@H]2CC[C@H](N(C)c3nccc(Nc4cc(C5CC5)[nH]n4)n3)CC2)n1 [Compound 144, (1R,4R)-4-((4-((5-cyclopropyl-1H-pyrazol-3-yl)amino)pyrimidin-2-yl)(methyl)amino)-N-((2-methyl-2H-tetrazol-5-yl)methyl)cyclohexane-1-carboxamide] | –
80 to 100% | 80 to 100% | – | CN(c1nccc(Nc2cc(C3CC3)[nH]n2)n1)[C@H]1CC[C@H](NC(=O)Cc2cccc(C#N)n2)CC1 [Compound 125, 2-(6-cyanopyridin-2-yl)-N-((1R,4R)-4-((4-((5-cyclopropyl-1H-pyrazol-3-yl)amino)pyrimidin-2-yl)(methyl)amino)cyclohexyl)acetamide] | –
50 to 79% | 80 to 100% | – | Cn1nnc(C(=O)N[C@H]2CC[C@H](N(C)c3nccc(Nc4cc(C5CCCC5)[nH]n4)n3)CC2)n1 [Compound 145, N-((1R,4R)-4-((4-((5-cyclopentyl-1H-pyrazol-3-yl)amino)pyrimidin-2-yl)(methyl)amino)cyclohexyl)-2-methyl-2H-tetrazole-5-carboxamide] | –
< 20% | 80 to 100% | – | COc1ccc(C#N)cc1CC(=O)N[C@H]1CC[C@H](N(C)c2nccc(Nc3cc(C4CC4)[nH]n3)n2)CC1 [Compound 126, 2-(5-cyano-2-methoxyphenyl)-N-((1R,4R)-4-((4-((5-cyclopropyl-1H-pyrazol-3-yl)amino)pyrimidin-2-yl)(methyl)amino)cyclohexyl)acetamide] | –
20 to 49% | < 20% | – | CN(c1nccc(Oc2cc(C3CCCC3)[nH]n2)n1)C1CCC(NC(=O)Cc2cccc(C(F)(F)F)c2)CC1 [Compound 131, N-((1R,4R)-4-((4-((5-cyclopentyl-1H-pyrazol-3-yl)oxy)pyrimidin-2-yl)(methyl)amino)cyclohexyl)-2-(3-(trifluoromethyl)phenyl)acetamide] | –
80 to 100% | 80 to 100% | – | CN(c1nccc(Nc2cc(C3CC3)[nH]n2)n1)[C@H]1CC[C@H](NC(=O)c2cn(C3COC3)nn2)CC1 [Compound 149, N-((1R,4R)-4-((4-((5-cyclopropyl-1H-pyrazol-3-yl)amino)pyrimidin-2-yl)(methyl)amino)cyclohexyl)-1-(oxetan-3-yl)-1H-1,2,3-triazole-4-carboxamide] | –
50 to 79% | 80 to 100% | – | CN(c1nccc(Nc2cc(C3CC3)[nH]n2)n1)[C@H]1CC[C@H](NS(=O)(=O)Cc2cccc(C#N)c2)CC1 [Compound 158, 1-(3-cyanophenyl)-N-((1R,4R)-4-((4-((5-cyclopropyl-1H-pyrazol-3-yl)amino)pyrimidin-2-yl)(methyl)amino)cyclohexyl)methanesulfonamide] | –
